Results: patent US7183075B2, “Purified and isolated potassium-chloride cotransporter nucleic acids and polypeptides and therapeutic and screening methods using same” (Vanderbilt University, priority 2000, dated 2007)

Columns and labels:
[1] = molecular target: mKCC4 mutant C256A/C469N/C565A/C647M (Mus musculus, UniProt Q9WVL3, C257A/C469N/C565A/C647M)
Method: (§1) Mercury is known to inhibit several transporters via interaction with transmembrane or juxtamembrane cysteines (Kuwahara et al. (1997) Biochemistry 36:13973–13978; Jacoby (1999) Am J Physiol 277:C684–692). Given the inhibition of the KCCs by millimolar NEM at room temperature, presumed due to alkylation of cysteine residues (Mercado et al. (2000) J Biol Chem 275:30326–3034), the differential response of the KCCs to 50 μM mercury (Hg—Cl2) was examined. […] Of note, a cysteine residue in TM11 of NKCC1 is involved in the response of Na^+—K^+-2Cl^− cotransport to mercury (Jacoby (1999) Am J Physiol 277:C684–692).

[2] = molecular target: mKCC4 mutant C256A/C469N/C565A/C647M/C633S (Mus musculus, UniProt Q9WVL3, C257A/C469N/C565A/C633S/C647M)
mKCC4 mutant C256A/C469N/C565A/C647M/C633S, sequence (Q9WVL3 whole entry C257A/C469N/C565A/C633S/C647M): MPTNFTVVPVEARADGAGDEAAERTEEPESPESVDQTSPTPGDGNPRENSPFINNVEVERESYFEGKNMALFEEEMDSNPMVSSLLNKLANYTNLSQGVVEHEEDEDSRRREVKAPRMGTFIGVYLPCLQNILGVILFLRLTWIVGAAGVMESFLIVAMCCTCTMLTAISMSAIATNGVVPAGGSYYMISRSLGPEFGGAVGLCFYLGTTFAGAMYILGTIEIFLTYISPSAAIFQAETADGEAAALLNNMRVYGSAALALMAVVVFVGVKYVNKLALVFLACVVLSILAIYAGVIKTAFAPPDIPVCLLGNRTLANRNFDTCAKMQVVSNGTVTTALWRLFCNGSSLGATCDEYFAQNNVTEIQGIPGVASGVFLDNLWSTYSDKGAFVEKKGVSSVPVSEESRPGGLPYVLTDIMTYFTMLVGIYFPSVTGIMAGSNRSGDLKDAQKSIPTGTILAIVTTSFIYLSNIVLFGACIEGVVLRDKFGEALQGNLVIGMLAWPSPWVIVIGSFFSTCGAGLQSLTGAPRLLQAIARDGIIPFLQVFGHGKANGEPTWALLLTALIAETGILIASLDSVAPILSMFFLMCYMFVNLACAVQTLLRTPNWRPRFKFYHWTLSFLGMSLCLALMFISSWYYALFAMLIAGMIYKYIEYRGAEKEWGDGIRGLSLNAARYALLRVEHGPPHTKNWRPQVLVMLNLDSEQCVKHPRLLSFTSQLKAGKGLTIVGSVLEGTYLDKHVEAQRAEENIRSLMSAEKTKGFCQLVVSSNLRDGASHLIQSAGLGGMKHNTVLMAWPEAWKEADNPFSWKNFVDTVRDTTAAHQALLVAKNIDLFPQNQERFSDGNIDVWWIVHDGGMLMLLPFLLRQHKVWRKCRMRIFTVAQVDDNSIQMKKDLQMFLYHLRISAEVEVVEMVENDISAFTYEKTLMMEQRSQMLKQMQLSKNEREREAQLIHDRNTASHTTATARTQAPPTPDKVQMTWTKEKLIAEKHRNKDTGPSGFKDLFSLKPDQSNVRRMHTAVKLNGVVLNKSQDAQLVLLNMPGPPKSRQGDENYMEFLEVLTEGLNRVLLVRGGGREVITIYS
Method: as §1

mKCC4 mutant C256A/C469N/C565A/C647M, sequence (Q9WVL3 whole entry C257A/C469N/C565A/C647M): as the sequence (Q9WVL3 whole entry C257A/C469N/C565A/C633S/C647M) above, with S633C counted along it

HgCl2 [Hg—Cl2]
response of quadruple mutant mKCC4 to HgCl2 [1]: weakly sensitive | response of quintuple mutant mKCC4 to HgCl2 [2]: resistant
